Measurements from patent publication US20030224942A1, “Alkylamino-1,3,5-triazines, processes for their preparation and their use as herbicides and plant growth regulators” (priority 2001, published 2003).

Experiments:
[1] = test system: Chenopodium spp., Papaver spp., Polygonum spp., Veronica spp. or Viola spp.; experiment: Post-emergence effect on weeds (greenhouse pot test, visual scoring); type: in vivo, monocotyledonous and dicotyledonous weeds; conditions: treated at three-leaf stage; visual scoring after about 3 to 4 weeks; application rate of 0.5 kg and less of active substance per hectare
[2] = test system: Cyperus spp., Echinochloa spp., Digitaria spp., Sagitaria spp. and Scirpus spp.; experiment: Action on harmful plants in rice (paddy rice conditions, visual scoring); type: in vivo, typical rice weeds (gramineous and broad-leaved); conditions: applied into the dammed water, visual scoring about three weeks after application
Text: Transplanted and sown rice and also typical rice weeds (gramineous and broad-leaved) are cultivated in closed plastic pots in a greenhouse to the three-leaf stage (Echinochloa crus-galli 1.5-leaf) under paddy rice conditions (dammed height of water: 2-3 cm). This is followed by treatment with the compounds according to the invention. […] After this treatment, the test plants are set up in a greenhouse under optimum growth conditions and are maintained in this way throughout the test period.

C#Cc1c(F)cc(CNc2nc(N)nc(CC)n2)cc1F [Product P6.352]
herbicidal activity post-emergence against harmful plants [1]: very good herbicidal activity | herbicidal activity against harmful plants which are typical for rice crops [2]: very good herbicidal activity

CC#Cc1cc(CNc2nc(N)nc(CC)n2)ccc1F [Product P6.384]
herbicidal activity post-emergence against harmful plants [1]: very good herbicidal activity | herbicidal activity against harmful plants which are typical for rice crops [2]: very good herbicidal activity

CC#Cc1c(F)cc(CNc2nc(N)nc(CC)n2)cc1F [Product P6.428]
herbicidal activity post-emergence against harmful plants [1]: very good herbicidal activity | herbicidal activity against harmful plants which are typical for rice crops [2]: very good herbicidal activity

CCc1nc(N)nc(NCc2ccc(F)c(C3CC3)c2)n1 [Product P6.916]
herbicidal activity post-emergence against harmful plants [1]: very good herbicidal activity | herbicidal activity against harmful plants which are typical for rice crops [2]: very good herbicidal activity

CCc1nc(N)nc(NCc2cc(F)c(C3CC3)c(F)c2)n1 [Product P6.960]
herbicidal activity post-emergence against harmful plants [1]: very good herbicidal activity | herbicidal activity against harmful plants which are typical for rice crops [2]: very good herbicidal activity

CCc1nc(N)nc(NCc2cccc(C(F)=C(F)F)c2)n1 [Product P6.1567]
herbicidal activity post-emergence against harmful plants [1]: very good herbicidal activity | herbicidal activity against harmful plants which are typical for rice crops [2]: very good herbicidal activity

CCc1nc(N)nc(NCc2ccc(C(F)=C(F)F)cc2)n1 [Product P6.1568]
herbicidal activity post-emergence against harmful plants [1]: very good herbicidal activity | herbicidal activity against harmful plants which are typical for rice crops [2]: very good herbicidal activity

C#Cc1cccc(CNc2nc(N)nc(CC)n2)c1 [Product P6.1579]
herbicidal activity post-emergence against harmful plants [1]: very good herbicidal activity | herbicidal activity against harmful plants which are typical for rice crops [2]: very good herbicidal activity

C#Cc1ccc(CNc2nc(N)nc(CC)n2)cc1 [Product P6.1580]
herbicidal activity post-emergence against harmful plants [1]: very good herbicidal activity | herbicidal activity against harmful plants which are typical for rice crops [2]: very good herbicidal activity

CC#Cc1cccc(CNc2nc(N)nc(CC)n2)c1 [Product P6.1582]
herbicidal activity post-emergence against harmful plants [1]: very good herbicidal activity | herbicidal activity against harmful plants which are typical for rice crops [2]: very good herbicidal activity

CC#Cc1ccc(CNc2nc(N)nc(CC)n2)cc1 [Product P6.1583]
herbicidal activity post-emergence against harmful plants [1]: very good herbicidal activity | herbicidal activity against harmful plants which are typical for rice crops [2]: very good herbicidal activity

CCc1nc(N)nc(NCc2cccc(C3CC3)c2)n1 [Product P6.1603]
herbicidal activity post-emergence against harmful plants [1]: very good herbicidal activity | herbicidal activity against harmful plants which are typical for rice crops [2]: very good herbicidal activity

CCc1nc(N)nc(NCc2ccc(C3CC3)cc2)n1 [Product P6.1604]
herbicidal activity post-emergence against harmful plants [1]: very good herbicidal activity | herbicidal activity against harmful plants which are typical for rice crops [2]: very good herbicidal activity

CCc1nc(N)nc(NC(C)c2ccc(F)c(C(F)=C(F)F)c2)n1 (stereo not drawn) [Product P7.5]
herbicidal activity post-emergence against harmful plants [1]: very good herbicidal activity | herbicidal activity against harmful plants which are typical for rice crops [2]: very good herbicidal activity

CCc1nc(N)nc(NC(C)c2cc(F)c(C(F)=C(F)F)c(F)c2)n1 (stereo not drawn) [Product P7.49]
herbicidal activity post-emergence against harmful plants [1]: very good herbicidal activity | herbicidal activity against harmful plants which are typical for rice crops [2]: very good herbicidal activity

C#Cc1cc(C(C)Nc2nc(N)nc(CC)n2)ccc1F (stereo not drawn) [Product P7.309]
herbicidal activity post-emergence against harmful plants [1]: very good herbicidal activity | herbicidal activity against harmful plants which are typical for rice crops [2]: very good herbicidal activity

C#Cc1ccc(C(C)Nc2nc(N)nc(CC)n2)cc1C (stereo not drawn) [Product P7.335]
herbicidal activity post-emergence against harmful plants [1]: very good herbicidal activity | herbicidal activity against harmful plants which are typical for rice crops [2]: very good herbicidal activity

C#Cc1c(C)cc(C(C)Nc2nc(N)nc(CC)n2)cc1C (stereo not drawn) [Product P7.348]
herbicidal activity post-emergence against harmful plants [1]: very good herbicidal activity | herbicidal activity against harmful plants which are typical for rice crops [2]: very good herbicidal activity

C#Cc1cc(C#C)cc(C(C)Nc2nc(N)nc(CC)n2)c1 (stereo not drawn) [Product P7.369]
herbicidal activity post-emergence against harmful plants [1]: very good herbicidal activity | herbicidal activity against harmful plants which are typical for rice crops [2]: very good herbicidal activity

CC#Cc1cc(C(C)Nc2nc(N)nc(CC)n2)ccc1F (stereo not drawn) [Product P7.384]
herbicidal activity post-emergence against harmful plants [1]: very good herbicidal activity | herbicidal activity against harmful plants which are typical for rice crops [2]: very good herbicidal activity

CC#Cc1c(F)cc(C(C)Nc2nc(N)nc(CC)n2)cc1F (stereo not drawn) [Product P7.428]
herbicidal activity post-emergence against harmful plants [1]: very good herbicidal activity | herbicidal activity against harmful plants which are typical for rice crops [2]: very good herbicidal activity

C=C=Cc1c(F)cc(C(C)Nc2nc(N)nc(CC)n2)cc1F (stereo not drawn) [Product P7.656]
herbicidal activity post-emergence against harmful plants [1]: very good herbicidal activity | herbicidal activity against harmful plants which are typical for rice crops [2]: very good herbicidal activity

CCc1nc(N)nc(NC(C)c2ccc(F)c(C#CC(C)O)c2)n1 (stereo not drawn) [Product P7.840]
herbicidal activity post-emergence against harmful plants [1]: very good herbicidal activity | herbicidal activity against harmful plants which are typical for rice crops [2]: very good herbicidal activity

CCc1nc(N)nc(NC(C)c2cc(F)c(C3CC3)c(F)c2)n1 (stereo not drawn) [Product P7.960]
herbicidal activity post-emergence against harmful plants [1]: very good herbicidal activity | herbicidal activity against harmful plants which are typical for rice crops [2]: very good herbicidal activity

CCc1nc(N)nc(NC(C)c2cccc(C(F)=C(F)F)c2)n1 (stereo not drawn) [Product P7.1567]
herbicidal activity post-emergence against harmful plants [1]: very good herbicidal activity | herbicidal activity against harmful plants which are typical for rice crops [2]: very good herbicidal activity

CCc1nc(N)nc(NC(C)c2ccc(C(F)=C(F)F)cc2)n1 (stereo not drawn) [Product P7.1568]
herbicidal activity post-emergence against harmful plants [1]: very good herbicidal activity | herbicidal activity against harmful plants which are typical for rice crops [2]: very good herbicidal activity

C#Cc1cccc(C(C)Nc2nc(N)nc(CC)n2)c1 (stereo not drawn) [Product P7.1579]
herbicidal activity post-emergence against harmful plants [1]: very good herbicidal activity | herbicidal activity against harmful plants which are typical for rice crops [2]: very good herbicidal activity

C#Cc1ccc(C(C)Nc2nc(N)nc(CC)n2)cc1 (stereo not drawn) [Product P7.1580]
herbicidal activity post-emergence against harmful plants [1]: very good herbicidal activity | herbicidal activity against harmful plants which are typical for rice crops [2]: very good herbicidal activity

CC#Cc1cccc(C(C)Nc2nc(N)nc(CC)n2)c1 (stereo not drawn) [Product P7.1582]
herbicidal activity post-emergence against harmful plants [1]: very good herbicidal activity | herbicidal activity against harmful plants which are typical for rice crops [2]: very good herbicidal activity

CC#Cc1ccc(C(C)Nc2nc(N)nc(CC)n2)cc1 (stereo not drawn) [Product P7.1583]
herbicidal activity post-emergence against harmful plants [1]: very good herbicidal activity | herbicidal activity against harmful plants which are typical for rice crops [2]: very good herbicidal activity

CCc1nc(N)nc(NC(C)c2cccc(C3CC3)c2)n1 (stereo not drawn) [Product P7.1603]
herbicidal activity post-emergence against harmful plants [1]: very good herbicidal activity | herbicidal activity against harmful plants which are typical for rice crops [2]: very good herbicidal activity

CCc1nc(N)nc(NC(C)c2ccc(C3CC3)cc2)n1 (stereo not drawn) [Product P7.1604]
herbicidal activity post-emergence against harmful plants [1]: very good herbicidal activity | herbicidal activity against harmful plants which are typical for rice crops [2]: very good herbicidal activity

C#Cc1ccc(C(C)Nc2nc(N)nc(CC)n2)cc1F (stereo not drawn) [Product P7.1620]
herbicidal activity post-emergence against harmful plants [1]: very good herbicidal activity | herbicidal activity against harmful plants which are typical for rice crops [2]: very good herbicidal activity

C#Cc1cc(C(Nc2nc(N)nc(CC)n2)C2CC2)ccc1F (stereo not drawn) [Product P9.309]
herbicidal activity post-emergence against harmful plants [1]: very good herbicidal activity | herbicidal activity against harmful plants which are typical for rice crops [2]: very good herbicidal activity

C#Cc1c(F)cc(C(Nc2nc(N)nc(CC)n2)C2CC2)cc1F (stereo not drawn) [Product P9.352]
herbicidal activity post-emergence against harmful plants [1]: very good herbicidal activity | herbicidal activity against harmful plants which are typical for rice crops [2]: very good herbicidal activity

CC#Cc1cc(C(Nc2nc(N)nc(CC)n2)C2CC2)ccc1F (stereo not drawn) [Product P9.384]
herbicidal activity post-emergence against harmful plants [1]: very good herbicidal activity | herbicidal activity against harmful plants which are typical for rice crops [2]: very good herbicidal activity

CC#Cc1c(F)cc(C(Nc2nc(N)nc(CC)n2)C2CC2)cc1F (stereo not drawn) [Product P9.428]
herbicidal activity post-emergence against harmful plants [1]: very good herbicidal activity | herbicidal activity against harmful plants which are typical for rice crops [2]: very good herbicidal activity

CCc1nc(N)nc(NC(c2cccc(C(F)=C(F)F)c2)C2CC2)n1 (stereo not drawn) [Product P9.1567]
herbicidal activity post-emergence against harmful plants [1]: very good herbicidal activity | herbicidal activity against harmful plants which are typical for rice crops [2]: very good herbicidal activity

CCc1nc(N)nc(NC(c2ccc(C(F)=C(F)F)cc2)C2CC2)n1 (stereo not drawn) [Product P9.1568]
herbicidal activity post-emergence against harmful plants [1]: very good herbicidal activity | herbicidal activity against harmful plants which are typical for rice crops [2]: very good herbicidal activity

C#Cc1cccc(C(Nc2nc(N)nc(CC)n2)C2CC2)c1 (stereo not drawn) [Product P9.1579]
herbicidal activity post-emergence against harmful plants [1]: very good herbicidal activity | herbicidal activity against harmful plants which are typical for rice crops [2]: very good herbicidal activity

C#Cc1ccc(C(Nc2nc(N)nc(CC)n2)C2CC2)cc1 (stereo not drawn) [Product P9.1580]
herbicidal activity post-emergence against harmful plants [1]: very good herbicidal activity | herbicidal activity against harmful plants which are typical for rice crops [2]: very good herbicidal activity

CC#Cc1cccc(C(Nc2nc(N)nc(CC)n2)C2CC2)c1 (stereo not drawn) [Product P9.1582]
herbicidal activity post-emergence against harmful plants [1]: very good herbicidal activity | herbicidal activity against harmful plants which are typical for rice crops [2]: very good herbicidal activity
